# Measurements taken from US6720480B2, “Maize proteinase inhibitor-like polynucleotides and defense-activated promoter, transformed plants, and methods of use” (Pioneer Hi-Bred International, Inc., priority 2000, dated 2004).
# Several values for one entry are separate records, joined by “and”; a condition that tells them apart may be missing. Equal entries are not always repeated.
# Legend:
# [1] = system: nucleotide sequences operably linked to the proteinase inhibitor-like promoter; conditions: HC-toxin 1 μg/ml; Northern analysis, average of 3 repeated experiments
# [2] = system: zmBBI1::GUS (proteinase inhibitor-like promoter); assay: Co-bombardment of maize immature embryos with zmBBI1::GUS, GUS fluorometric assay after chemical treatment; type: cell-based; conditions: for normalized promoter activity (GUS/Luci), Table 2b: Lucif adj for SA (/0.38); for normalized promoter activity (GUS/Luci), Table 2a: luciferase of sample with no chemicals; for GUS/Luci: Lucif adj for SA and JA (Luci for none); for GUS/Luci / GUS pmol MU/min/ml extract (ave) / GUS pmol MU/min/ml extract (ave), less backg 45.6: Rep 1 and 2; for GUS pmol MU/min/ml extract (ave) / GUS pmol MU/min/ml extract (ave), less backg 45.6: SA 1 mM, JA 0.1 mM; for GUS pmol MU/min/ml extract (ave): 20 h; for GUS pmol MU/min/ml extract (ave), less backg 45.6: second GUS column without own head
# Protocol: The activity of the promoter was also studied in the presence of the putative defense activator, zmNPR1. Specifically, maize immature embryos (IE) were co-bombarded with the zmBBI1::GUS construct along with Act::luciferease as an internal standard and either a carrier DNA or an putative defense activators, zmNPR1 (U.S. patent application Ser. No. 09/551,778, filed Apr. 18, 2000, herein incorporated by reference). Particle preparation and DNA coating were carried out as described by Zhang et al.((2000) Plant Cell Reports 19:241-250) except for use of tungsten (1.0 μm) particles and different amounts of DNA: 50 μl zmBBI1::GUS at 0.02 μg/μl, Act::luciferase at 0.1 μg/μl, and 5 μl of the carrier or activator DNA at 1.0 μg/μl. The amount of DNA delivered for each bombardment were 0.33, 0.17, and 1.67 μg for zmBBI1::GUS, Act::luciferase, and the carrier or activator, respectively. The DNA concentration for zmBBI1::GUS was chosen in previous experiments for low background expression. A total of 45 IEs were used for each bombardment. IEs were placed on the osmotic medium (Vain et al. (1993) Plant Cell Reports 12:84-88) for 4 h before bombardment. The distance from the stopping screen to the target was 10 cm and bombardment was done at 650 psi with a PDS 1000/He device (Bio-Rad Laboratories).
# After the bombardment the IEs were cultured on the same osmotic medium for 20-24 hr. Subsequently, the 45 IEs were randomly divided into three groups, 15 IEs for each. They were, then, transferred to three new petri dishes (60×25 mm) for chemical treatments. A piece of filter paper had been placed in each petri dish and wetted with 1.25 ml of 560Y liquid medium containing no chemical, 1 mM SA and 0.1 mM JA, respectively. The IEs were cultured again for another 20 h.
# Three IEs from each group were then histochemically stained in X-Gluc staining solution (McCabe et al. (1988) Bio/Technology 6:923-926) for overnight at 37° C. The rest of the IEs were subjected to GUS fluorometric and luciferase assays. Fluorometric measurements of GUS activity were performed by using 50 μl protein extract prepared from the 12 IEs of each treatment and quantified in Fluoroskan Ascent FL (Labsystem) for two time points, 10 and 30 min. Luciferase activity was quantified in a Monolight 2010 (Analytical Luminescence Lab) by mixing 20 μl of protein extract with 100 μl of reaction buffer (Dual-Luciferase Reporter Assay System, Promega) and taking the measurements after 10 s. […]
Structure (SMILES),increase in expression level of the reporter sequence linked to the promoter [1] [fold],"normalized promoter activity (GUS/Luci), Table 2b ([2]; Rep 1, NPR1+)","normalized promoter activity (GUS/Luci), Table 2a ([2]; Rep 1, NPR1+)","normalized promoter activity (GUS/Luci), Table 2b ([2]; Rep 1, NPR1−)","normalized promoter activity (GUS/Luci), Table 2a ([2]; Rep 1, NPR1−)","normalized promoter activity (GUS/Luci), Table 2b ([2]; Rep 2, NPR1+)","normalized promoter activity (GUS/Luci), Table 2a ([2]; Rep 2, NPR1+)","normalized promoter activity (GUS/Luci), Table 2b ([2]; Rep 2, NPR1−)","normalized promoter activity (GUS/Luci), Table 2a ([2]; Rep 2, NPR1−)",GUS/Luci ([2]; zmNPR1 N),GUS pmol MU/min/ml extract (ave) ([2]; zmNPR1 N),"GUS pmol MU/min/ml extract (ave), less backg 45.6 ([2]; zmNPR1 N)",GUS/Luci ([2]; zmNPR1 Y),GUS pmol MU/min/ml extract (ave) ([2]; zmNPR1 Y),"GUS pmol MU/min/ml extract (ave), less backg 45.6 ([2]; zmNPR1 Y)",expression of sequence operably linked to the proteinase inhibitor-like promoter (in words) ([2]; maize immature embryos co-bombarded with zmBBI1::GUS)
C[C@@H]1NC(=O)[C@H]2CCCN2C(=O)[C@H](CCCCCC(=O)[C@@H]2CO2)NC(=O)[C@@H](C)NC1=O [HC-toxin],2,,,,,,,,,,,,,,,
"CC/C=C\C[C@H]1C(=O)CC[C@@H]1CC(=O)O [JA, jasmonic acid]",,3.39,3.19,8.73,6.5,3.54,3.19,11.42,11.74,11.74 and 6.50,62.22 pmol MU/min/ml extract and 58.61 pmol MU/min/ml extract,16.62 pmol MU/min/ml extract and 13.01 pmol MU/min/ml extract,3.19,55.25 pmol MU/min/ml extract and 54.57 pmol MU/min/ml extract,9.65 pmol MU/min/ml extract and 8.97 pmol MU/min/ml extract,
"O=C(O)c1ccccc1O [SA, salicylic acid]",,13.95,20.12,34.87,38.35,14.91,19.22,31.15,40.51,40.15 and 38.35,102.94 pmol MU/min/ml extract and 122.31 pmol MU/min/ml extract,57.34 pmol MU/min/ml extract and 76.71 pmol MU/min/ml extract,20.12 and 19.22,106.54 pmol MU/min/ml extract and 99.71 pmol MU/min/ml extract,60.94 pmol MU/min/ml extract and 54.11 pmol MU/min/ml extract,induces expression
